# Reference: patent US11739098B2 (BRISTOL-MYERS SQUIBB COMPANY, priority 2017, dated 2023)
# How the values were obtained:
# Format in all cases: cell-based
# human TLR9 = molecular target: T1, human TLR9 (Homo sapiens, UniProt Q9NR96); assay: TLR9 inhibition reporter assay (HEK-Blue cells, SEAP reporter, ODN2006 stimulation); settings: HEK-Blue cells overexpressing human TLR9, SEAP reporter, ODN2006 5 nM
# T1 construct: host or cells: HEK-Blue cells (HEK293-derived reporter line)
# T1 sequence (Q9NR96 26-1032): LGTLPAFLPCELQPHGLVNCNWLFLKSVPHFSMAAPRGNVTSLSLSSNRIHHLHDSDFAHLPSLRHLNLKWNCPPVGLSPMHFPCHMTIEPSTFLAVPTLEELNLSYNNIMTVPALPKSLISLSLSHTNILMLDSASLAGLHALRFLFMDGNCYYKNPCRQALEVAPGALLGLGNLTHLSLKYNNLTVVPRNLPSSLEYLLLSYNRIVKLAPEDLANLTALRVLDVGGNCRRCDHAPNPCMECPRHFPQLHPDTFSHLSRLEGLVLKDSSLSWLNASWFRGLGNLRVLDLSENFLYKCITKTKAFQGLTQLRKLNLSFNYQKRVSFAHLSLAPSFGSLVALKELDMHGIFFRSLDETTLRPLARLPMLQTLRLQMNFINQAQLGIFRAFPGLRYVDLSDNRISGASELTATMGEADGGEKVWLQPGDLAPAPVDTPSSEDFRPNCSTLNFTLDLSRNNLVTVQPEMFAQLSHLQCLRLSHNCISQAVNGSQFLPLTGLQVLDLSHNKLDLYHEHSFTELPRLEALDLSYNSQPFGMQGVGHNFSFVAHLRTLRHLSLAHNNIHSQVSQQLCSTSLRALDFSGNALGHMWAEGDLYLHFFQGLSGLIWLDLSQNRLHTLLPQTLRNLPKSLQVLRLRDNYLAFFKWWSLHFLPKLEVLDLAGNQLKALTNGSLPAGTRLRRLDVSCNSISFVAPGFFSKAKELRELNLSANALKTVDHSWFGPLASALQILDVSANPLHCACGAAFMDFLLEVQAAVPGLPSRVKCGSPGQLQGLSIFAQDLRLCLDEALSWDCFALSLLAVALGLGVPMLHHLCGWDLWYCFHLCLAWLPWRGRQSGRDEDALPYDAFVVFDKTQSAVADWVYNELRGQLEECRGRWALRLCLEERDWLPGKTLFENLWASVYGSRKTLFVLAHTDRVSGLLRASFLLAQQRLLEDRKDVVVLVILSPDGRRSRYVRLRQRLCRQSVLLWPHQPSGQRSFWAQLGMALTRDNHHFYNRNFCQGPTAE
# Procedure, shortened: (§1)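 After 22 h at 37 °C, SEAP secretion was measured from human TLR7-, TLR8- or TLR9-expressing HEK-Blue reporter cells given compound (0.05 nM–50 μM) 30 min before agonist: 7.5 μM gardiquimod, 15.9 μM R848 or 5 nM ODN2006 respectively. Percent inhibition referenced to agonist-plus-DMSO and known-inhibitor wells.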
# human TLR8 = molecular target: T2, human TLR8 (Homo sapiens, UniProt Q9NR97); assay: TLR8 inhibition reporter assay (HEK-Blue cells, SEAP reporter, R848 stimulation); settings: HEK-Blue cells overexpressing human TLR8, SEAP reporter, R848 15.9 μM
# T2 construct: host or cells: HEK-Blue cells (HEK293-derived reporter line)
# T2 sequence (Q9NR97 27-1041): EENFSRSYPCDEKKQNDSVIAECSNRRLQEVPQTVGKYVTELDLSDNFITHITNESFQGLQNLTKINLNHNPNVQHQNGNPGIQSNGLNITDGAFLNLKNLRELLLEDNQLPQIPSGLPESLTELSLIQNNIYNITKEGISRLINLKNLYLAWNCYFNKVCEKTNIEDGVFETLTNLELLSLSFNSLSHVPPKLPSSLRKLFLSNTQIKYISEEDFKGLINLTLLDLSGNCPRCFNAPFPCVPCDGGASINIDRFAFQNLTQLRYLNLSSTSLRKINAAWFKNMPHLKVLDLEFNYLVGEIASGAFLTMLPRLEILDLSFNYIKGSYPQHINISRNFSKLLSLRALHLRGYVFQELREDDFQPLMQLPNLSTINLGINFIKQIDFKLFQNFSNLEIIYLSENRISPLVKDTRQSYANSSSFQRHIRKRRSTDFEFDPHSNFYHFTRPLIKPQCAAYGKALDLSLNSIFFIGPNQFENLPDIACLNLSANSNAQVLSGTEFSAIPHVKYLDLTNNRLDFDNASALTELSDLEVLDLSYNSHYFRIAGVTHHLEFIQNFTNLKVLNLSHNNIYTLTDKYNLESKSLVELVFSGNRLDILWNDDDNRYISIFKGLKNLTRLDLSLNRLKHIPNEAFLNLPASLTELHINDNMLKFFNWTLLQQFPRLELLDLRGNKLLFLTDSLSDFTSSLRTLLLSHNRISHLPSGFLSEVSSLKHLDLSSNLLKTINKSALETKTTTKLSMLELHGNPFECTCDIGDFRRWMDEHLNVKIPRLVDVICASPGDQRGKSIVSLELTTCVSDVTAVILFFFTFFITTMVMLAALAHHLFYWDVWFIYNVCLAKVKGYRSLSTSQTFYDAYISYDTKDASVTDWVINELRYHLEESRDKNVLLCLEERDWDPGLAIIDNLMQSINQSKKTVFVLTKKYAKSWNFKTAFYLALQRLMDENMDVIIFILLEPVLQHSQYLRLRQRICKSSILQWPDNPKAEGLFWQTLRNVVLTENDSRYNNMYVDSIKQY
# Procedure, shortened: as §1
# human TLR7 = molecular target: T3, human TLR7 (Homo sapiens, UniProt Q9NYK1); assay: TLR7 inhibition reporter assay (HEK-Blue cells, SEAP reporter, gardiquimod stimulation); settings: HEK-Blue cells overexpressing human TLR7, SEAP reporter, gardiquimod 7.5 μM
# T3 construct: host or cells: HEK-Blue cells (HEK293-derived reporter line)
# T3 sequence (Q9NYK1 27-1049): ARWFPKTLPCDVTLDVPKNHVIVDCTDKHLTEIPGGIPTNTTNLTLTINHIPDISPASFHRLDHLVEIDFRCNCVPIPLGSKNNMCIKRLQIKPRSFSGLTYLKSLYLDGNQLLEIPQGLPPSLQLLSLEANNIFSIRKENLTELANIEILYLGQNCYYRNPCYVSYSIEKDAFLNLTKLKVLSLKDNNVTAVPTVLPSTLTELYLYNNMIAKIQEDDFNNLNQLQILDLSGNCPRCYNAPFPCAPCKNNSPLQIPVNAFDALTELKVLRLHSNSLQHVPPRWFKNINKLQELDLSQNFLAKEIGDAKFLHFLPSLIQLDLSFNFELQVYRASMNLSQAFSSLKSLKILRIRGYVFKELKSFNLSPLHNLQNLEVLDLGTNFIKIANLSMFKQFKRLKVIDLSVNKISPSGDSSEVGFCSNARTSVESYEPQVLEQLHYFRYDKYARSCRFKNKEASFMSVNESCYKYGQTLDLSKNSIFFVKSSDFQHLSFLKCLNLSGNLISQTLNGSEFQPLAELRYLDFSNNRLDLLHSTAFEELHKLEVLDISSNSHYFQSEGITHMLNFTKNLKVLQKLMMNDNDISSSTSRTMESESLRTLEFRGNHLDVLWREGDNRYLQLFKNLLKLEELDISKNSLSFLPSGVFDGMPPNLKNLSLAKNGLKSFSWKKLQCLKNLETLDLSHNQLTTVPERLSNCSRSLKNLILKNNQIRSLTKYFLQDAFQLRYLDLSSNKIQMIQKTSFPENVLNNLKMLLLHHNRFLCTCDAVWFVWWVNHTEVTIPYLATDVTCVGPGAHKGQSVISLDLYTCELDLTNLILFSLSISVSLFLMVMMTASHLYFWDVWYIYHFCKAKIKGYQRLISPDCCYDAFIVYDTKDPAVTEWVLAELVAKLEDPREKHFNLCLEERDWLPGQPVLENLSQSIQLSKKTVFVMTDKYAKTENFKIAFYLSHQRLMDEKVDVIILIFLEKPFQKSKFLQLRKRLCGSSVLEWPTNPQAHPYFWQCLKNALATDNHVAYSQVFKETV
# Procedure, shortened: as §1
SMILES,IC50 (human TLR9) [µM],IC50 (human TLR8) [µM],IC50 (human TLR7) [µM]
"Cc1ncc(CN2CCC(c3ccc4[nH]c(-c5cn(C)c6ncccc56)c(C(C)C)c4c3)CC2)cn1 [Example 876, 3-(3-isopropyl-5-(1-((2-methylpyrimidin-5-yl)methyl)piperidin-4-yl)-1H-indol-2-yl)-1-methyl-1H-pyrrolo[2,3-b]pyridine]",1 to 50,< 0.1,< 0.1
"CC(C)c1c(-c2ccnc3[nH]ncc23)[nH]c2ccc(C3CCN(C4C[C@H]5CC[C@@H](C4)N5C)CC3)cc12 (stereo partly drawn) [Example 829, 4-(3-isopropyl-5-(1-((1R,5S)-8-methyl-8-azabicyclo[3.2.1]octan-3-yl)piperidin-4-yl)-1H-indol-2-yl)-1H-pyrazolo[3,4-b]pyridine]",0.1 to 1,< 0.1,< 0.1
"Cc1cc(-c2[nH]c3ccc(C4CCN(CC#N)CC4)cc3c2C(C)C)cn2nnnc12 [Example 961, 2-(4-(3-isopropyl-2-(8-methyltetrazolo[1,5-a]pyridin-6-yl)-1H-indol-5-yl)piperidin-1-yl)acetonitrile]",0.1 to 1,< 0.1,< 0.1
"CC(C)c1c(-c2cc(C(C)C)c3nccn3c2)[nH]c2ccc(C3CCNCC3)cc12 [Example 260, 8-Isopropyl-6-(3-isopropyl-5-(piperidin-4-yl)-1H-indol-2-yl)imidazo[1,2-a]pyridine]",1 to 50,0.1 to 1,< 0.1
"CC(C)c1c(-c2cn(C)c3ncccc23)[nH]c2ccc(C3CCNCC3)cc12 [Example 48, 3-(3-isopropyl-5-(piperidin-4-yl)-1H-indol-2-yl)-1-methyl-1H-pyrrolo[2,3-b]pyridine]",1 to 50,< 0.1,< 0.1
"Cc1nc[nH]c1CN1CCC(c2ccc3[nH]c(-c4ccnc5[nH]cnc45)c(C(C)C)c3c2)CC1 [Example 861, 7-(3-isopropyl-5-(1-((4-methyl-1H-imidazol-5-yl)methyl)piperidin-4-yl)-1H-indol-2-yl)-3H-imidazo[4,5-b]pyridine]",0.1 to 1,< 0.1,< 0.1
"COc1cc(-c2[nH]c3ccc(C4CCNCC4)cc3c2C(C)C)cc2nc(C)nn12 [Example 155, 7-(3-isopropyl-5-(piperidin-4-yl)-1H-indol-2-yl)-5-methoxy-2-methyl-[1,2,4]triazolo [1,5-a]pyridine]",1 to 50,< 0.1,< 0.1
"CC(C)c1c(-c2cnc3nn(C)cc3c2)[nH]c2ccc(C3CCN(C(=O)CN(C)C)CC3)cc12 [Example 505, 2-(dimethylamino)-1-(4-(3-isopropyl-2-(2-methyl-2H-pyrazolo[3,4-b]pyridin-5-yl)-1H-indol-5-yl)piperidin-1-yl)ethan-1-one]",1 to 50,> 3.13,0.1 to 1
"Cc1cc(-c2[nH]c3ccc(C4CCNCC4)cc3c2C(C)C)cc2cncn12 [Example 164, 7-(3-isopropyl-5-(piperidin-4-yl)-1H-indol-2-yl)-5-methylimidazo[1,5-a]pyridine]",0.1 to 1,< 0.1,< 0.1
"Cc1cc(-c2[nH]c3ccc(C4CCN(C5CCOCC5)CC4)cc3c2C(C)C)nn2ncnc12 [Example 686, 6-(3-isopropyl-5-(1-(tetrahydro-2H-pyran-4-yl)piperidin-4-yl)-1H-indol-2-yl)-8-methyl-[1,2,4]triazolo[1,5-b]pyridazine]",1 to 50,< 0.1,< 0.1
"CC(C)c1c(-c2cn3ccnc3cc2Cl)[nH]c2ccc(C3CCN(CC(=O)N(C)C)CC3)cc12 [Example 428, 2-(4-(2-(7-chloroimidazo[1,2-a]pyridin-6-yl)-3-isopropyl-1H-indol-5-yl)piperidin-1-yl)-N,N-dimethylacetamide]",1 to 50,< 0.1,< 0.1
"Cc1cc2ncnn2nc1-c1[nH]c2ccc(C3CCNCC3)cc2c1C(C)C [Example 31, 6-(3-isopropyl-5-(piperidin-4-yl)-1H-indol-2-yl)-7-methyl-[1,2,4]triazolo[1,5-b]pyridazine]",1 to 50,< 0.1,< 0.1
"CNCCN1CCC(c2ccc3[nH]c(-c4ccc5c(c4)OCCN5C)c(C)c3c2)CC1 [Example 673, N-methyl-2-(4-(3-methyl-2-(4-methyl-3,4-dihydro-2H-benzo[b][1,4]oxazin-7-yl)-1H-indol-5-yl)piperidin-1-yl)ethan-1-amine]",1 to 50,> 3.13,> 50
"Cc1cc(-c2[nH]c3ccc(C4CCNCC4)cc3c2C(C)C)cc2ocnc12 [Example 234, 6-(3-isopropyl-5-(piperidin-4-yl)-1H-indol-2-yl)-4-methylbenzo[d]oxazole]",1 to 50,< 0.1,< 0.1
"CCc1c(-c2ccnc3[nH]ncc23)[nH]c2ccc(C3CCNCC3)cc12 [Example 229, 4-(3-ethyl-5-(piperidin-4-yl)-1H-indol-2-yl)-1H-pyrazolo[3,4-b]pyridine]",0.1 to 1,< 0.1,< 0.1
